In US20140024720A1, “PHARMACEUTICAL COMPOSITION CONTAINING CYCLOBENZAPRINE SUITABLE TO INTRANASAL ADMINISTRATION” (Campiglo Consulting SRL, priority 2011, published 2014):
Structures can show the parent of a compound that is named as a salt. Where two headings read alike, the source gives them in different places.

Key:
in vivo = details: rabbit; for AUC(0-inf) / AUC(0-t) / Cmax / Tmax / half-life: male, New Zealand albino, plasma
Experimental: The plasma levels of cyclobenzaprine (CBZ) were determined after a single intranasal dose of 1.5 mg/kg in a volume of 10 μl, and 3.0 mg/kg in a volume of 20 μl, and after a single oral dose of 1.5 mg/kg in New Zealand albino male rabbits.
1. The oral administration was performed with a 0.15% solution, the intranasal administration with a 15% solution.
2. Six male animals/group were treated with a single dose by intranasal or oral route.
3. Fifteen minutes before the drug administration the central artery of the ear was cannulated with a 25-gauge needle catheter and for each animal 7 blood collections at time 0 (TO, before drug administration) and at 15, 30, 60, 90, 120, 180 minutes after drug administration were performed. Three mL of blood sample were collected in heparinized tubes and the volume replaced with a Ringer-Lactate solution. The plasma samples were obtained from blood samples by centrifugation at 3000 g for 5 min. The plasma samples were be stored at −20±2° C. until the LC/MS/MS analysis.
4. Rabbit plasma concentrations of CBZ were determined using a validated LC-MS/MS method in the calibration range of 0.25-300 ng/mL.
Aliquots of 250 μL of rabbit plasma were spiked with 5 μL of internal standard (IS) solution (containing approximately 5000 ng/mL of IS, Imipramine Hydrochloride) in water:methanol (50/50, v/v), after vortex-mixing, 250 μL of borate buffer were added. After vortex-mixing, 3.5 mL of hexane were added. After vortex-mixing for 10 minutes and centrifugation at 10.000 rpm at +4° C. for 10 minutes, aliquots of 3 mL of organic phase were transferred into a single glass tube and dried under vacuum at 40° C. using a Büchi vacuum system. The residues were re-constituted with 100 μL of 20 Mm ammonium acetate buffer solution, 0.1%:acetonitrile (50/50, v/v) solution. The tubes were then capped, vortex-mixed and centrifugated at 4100 rpm at +4° C. for 10 minutes. The final extracts were transferred into an autosampler vial and 4 μL were injected into the LC-MS/MS system.
Calibration curves plot the ratio of the area of the compound and the IS (y) against the analyte concentration (x). A weighted linear regression function (1/x) is used to fit calibration lines and consequently to calculate CBZ concentrations. The lower and upper limits of quantification are 0.25 and 300 ng/mL of plasma samples.

[1] = cited from earlier work
[2] = pH higher than 7.4, opalescence formation
[3] = inhaled or intranasal, 1.5 mg/kg

In the case of `CN(C)CCC=C1c2ccccc2C=Cc2ccccc21` [Cyclobenzaprine, 3-(5H-dibenzo[a,d]cyclo-epten-5-yliden)-N,N-dimethyl-1-propanamine hydrochloride], the tonicity (10% aqueous solution) is reported as “ipertonic”, the tonicity (15% aqueous solution) is reported as “ipertonic” and the NaCl equivalent (aqueous solution containing 5% cyclobenzaprine hydrochloride) is reported as 0.88 g-eq di NaCl. The osmolarity (aqueous solution containing 5% cyclobenzaprine hydrochloride, practically isotonic) was 400 mOsmol/L, the AUC(0-inf) (in vivo; [3]) was 65.8 ng·h/mL and the AUC(0-t) (in vivo; [3]) was 60.1 ng·h/mL. For the same molecule, the Cmax (in vivo; [3]) was 69.3 ng/mL, the Tmax (in vivo; [3]) was 30 min and the half-life (in vivo; [3]) was 49.3 min. It also gave an AUC(0-inf) (in vivo; inhaled or intranasal, 3 mg/kg) of 65.6 ng·h/mL, an AUC(0-t) (in vivo; inhaled or intranasal, 3 mg/kg) of 54.6 ng·h/mL and a Cmax (in vivo; inhaled or intranasal, 3 mg/kg) of 65.1 ng/mL. It also gave a Tmax (in vivo; inhaled or intranasal, 3 mg/kg) of 30 min, a half-life (in vivo; inhaled or intranasal, 3 mg/kg) of 93.9 min and an AUC(0-inf) (in vivo; po, 1.5 mg/kg) of 3.44 ng·h/mL. The AUC(0-t) (in vivo; po, 1.5 mg/kg) was 2.08 ng·h/mL, the Cmax (in vivo; po, 1.5 mg/kg) was 1.28 ng/mL and the Tmax (in vivo; po, 1.5 mg/kg) was 30 min. For the same molecule, the half-life (in vivo; po, 1.5 mg/kg) was 124 min, the “rate of absorption by intranasal route compared with oral route” value (in vivo) was “higher” and the “absorption by intranasal route” value (in vivo; intranasal) was “well absorbed”. The λz (in vivo; intranasal 1.5 mg/kg, 15% solution) was 0.940 h⁻¹, the λz (in vivo; intranasal 3.0 mg/kg, 15% solution) was 0.452 h⁻¹ and the “dose dependence of Cmax and AUC by intranasal route” value (in vivo; intranasal 1.5 and 3.0 mg/kg) was “linear with the dose”. The λz (in vivo; oral 1.5 mg/kg, 0.15% solution) was 0.361 h⁻¹, the plasmatic half time ([1]; absorbed per os, range 8-37 hours) was 18 h and the “time until effect of a single administration is shown” value ([1]; after oral taking) was “one”. The “duration of effect of a single administration” value ([1]; oral taking) was ≥ 12 h and the “solubility of cyclobenzaprine base in the buffer solution” value [2] was “not soluble”.
